Values of other authors, collected in PMC5742115, “Pharmacophore Modeling and in Silico/in Vitro Screening for Human Cytochrome P450 11B1 and Cytochrome P450 11B2 Inhibitors” (Frontiers in Chemistry, 2017).
Like-named read-outs stand apart in the source and are kept apart here.

Legend:
CYP11B2 = settings: reported activity, supplementary Table 1, read-out: CYP11B2 IC50, cited from earlier work
CYP11B1 = settings: reported activity, supplementary Table 1, read-out: CYP11B1 IC50, cited from earlier work

Compound: COc1cc2c(cc1-c1cccnc1)CCC(=O)N2C [CHEMBL2165315]
- IC50 (CYP11B2; ref Hu et al., 2012): 19 nM
- IC50 (CYP11B1; ref Hu et al., 2012): 1100 nM

Compound: CCOc1cc2c(cc1-c1cccnc1)CCC(=O)N2C [CHEMBL2165317]
- IC50 (CYP11B2; ref Hu et al., 2012): 19 nM
- IC50 (CYP11B1; ref Hu et al., 2012): 790 nM

Compound: O=C1CCc2cc(-c3cccnc3)c(OCc3ccccc3)cc2N1 [CHEMBL2165320]
- IC50 (CYP11B2; ref Hu et al., 2012): 22 nM
- IC50 (CYP11B1; ref Hu et al., 2012): 44 nM

Compound: O=C1CCc2cc(-c3cccnc3)cc(Br)c2N1 [CHEMBL2165322]
- IC50 (CYP11B2; ref Hu et al., 2012): 12 nM
- IC50 (CYP11B1; ref Hu et al., 2012): 1420 nM

Compound: C=C(c1ccncc1)c1cc2c3c(c1)CCN3C(=O)CC2 [CHEMBL2312949]
- IC50 (CYP11B2; ref Yin et al., 2013): 96 nM
- IC50 (CYP11B1; ref Yin et al., 2013): 1230 nM

Compound: CC(c1ccncc1)c1cc2c3c(c1)CCN3C(=O)CC2 (centres unmarked) [CHEMBL2312950]
- IC50 (CYP11B2; ref Yin et al., 2013): 74 nM
- IC50 (CYP11B1; ref Yin et al., 2013): 140 nM

Compound: O=C1CCc2cc(C(O)(c3ccccc3)c3ccncc3)cc3c2N1CC3 (centres unmarked) [CHEMBL2312953]
- IC50 (CYP11B2; ref Yin et al., 2013): 85 nM
- IC50 (CYP11B1; ref Yin et al., 2013): 745 nM

Compound: COc1ccc(C(c2ccncc2)c2cc3c4c(c2)CCN4C(=O)CC3)cc1 (centres unmarked) [CHEMBL2312957]
- IC50 (CYP11B2; ref Yin et al., 2013): 46 nM
- IC50 (CYP11B1; ref Yin et al., 2013): 1690 nM

Compound: O=C1CCc2cc(C(c3ccncc3)c3cccc(F)c3)cc3c2N1CC3 (centres unmarked) [CHEMBL2312958]
- IC50 (CYP11B2; ref Yin et al., 2013): 88 nM
- IC50 (CYP11B1; ref Yin et al., 2013): 532 nM

Compound: O=C1CCc2cc(C(c3ccncc3)c3ccc(F)cc3)cc3c2N1CC3 (centres unmarked) [CHEMBL2312959]
- IC50 (CYP11B2; ref Yin et al., 2013): 56 nM
- IC50 (CYP11B1; ref Yin et al., 2013): 88 nM

Compound: O=C1CCc2cc(C(c3ccncc3)c3cccc(Cl)c3)cc3c2N1CC3 (centres unmarked) [CHEMBL2312960]
- IC50 (CYP11B2; ref Yin et al., 2013): 51 nM
- IC50 (CYP11B1; ref Yin et al., 2013): 646 nM

Compound: O=C1CCc2cc(C(c3ccncc3)c3ccc(Cl)cc3)cc3c2N1CC3 (centres unmarked) [CHEMBL2312961]
- IC50 (CYP11B2; ref Yin et al., 2013): 32 nM
- IC50 (CYP11B1; ref Yin et al., 2013): 92 nM

Compound: Cc1cccc(C(c2ccncc2)c2cc3c4c(c2)CCN4C(=O)CC3)c1 (centres unmarked) [CHEMBL2312962]
- IC50 (CYP11B2; ref Yin et al., 2013): 41 nM
- IC50 (CYP11B1; ref Yin et al., 2013): 1340 nM

Compound: O=C1CCc2cc(Cc3cccnc3)cc3c2N1CC3 [CHEMBL2312965]
- IC50 (CYP11B2; ref Yin et al., 2013): 74 nM
- IC50 (CYP11B1; ref Yin et al., 2013): 16 nM

Compound: C=C(c1cccnc1)c1cc2c3c(c1)CCN3C(=O)CC2 [CHEMBL2312966]
- IC50 (CYP11B2; ref Yin et al., 2013): 468 nM
- IC50 (CYP11B1; ref Yin et al., 2013): 41 nM

Compound: CC(c1cccnc1)c1cc2c3c(c1)CCN3C(=O)CC2 (centres unmarked) [CHEMBL2312967]
- IC50 (CYP11B2; ref Yin et al., 2013): 37 nM
- IC50 (CYP11B1; ref Yin et al., 2013): 4 nM

Compound: O=C1CCc2cc(C(c3cccnc3)c3cccc(Cl)c3)cc3c2N1CC3 (centres unmarked) [CHEMBL2312971]
- IC50 (CYP11B2; ref Yin et al., 2013): > 5000 nM
- IC50 (CYP11B1; ref Yin et al., 2013): 36 nM

Compound: O=C1CCc2cc(C(c3ccc(F)cc3)c3cccnc3)cc3c2N1CC3 (centres unmarked) [CHEMBL2312972]
- IC50 (CYP11B2; ref Yin et al., 2013): 587 nM
- IC50 (CYP11B1; ref Yin et al., 2013): 78 nM

Compound: Cc1nnc2n1-c1c(Cl)cc(-c3cnccc3C3CC3)cc1CC2 [CHEMBL2331703]
- IC50 (CYP11B2; ref Blass, 2013a): 48 nM
- IC50 (CYP11B1; ref Blass, 2013a): 6930 nM

Compound: COC(C)(C)c1cncc(-c2ccc3c(c2)CCc2nnc(C)n2-3)c1 [CHEMBL2331704]
- IC50 (CYP11B2; ref Blass, 2013a): 5 nM
- IC50 (CYP11B1; ref Blass, 2013a): 108 nM

Compound: Cc1nnc2n1-c1ccc(-c3cncc4ccccc34)cc1CC2 [CHEMBL2331706]
- IC50 (CYP11B2; ref Blass, 2013a): 5 nM
- IC50 (CYP11B1; ref Blass, 2013a): 407 nM

Compound: Fc1ccc(Cn2ccnc2)cn1 [CHEMBL2331707]
- IC50 (CYP11B2; ref Blass, 2013b): 1740 nM
- IC50 (CYP11B1; ref Blass, 2013b): 72 nM

Compound: O=c1c2ccccc2oc2c(Cl)ccc(Cn3ccnc3)c12 [CHEMBL2333326]
- IC50 (CYP11B2; ref Gobbi et al., 2013): 3 nM
- IC50 (CYP11B1; ref Gobbi et al., 2013): 0.5 nM

Compound: O=c1c2ccccc2oc2c(I)ccc(Cn3ccnc3)c12 [CHEMBL2333327]
- IC50 (CYP11B2; ref Gobbi et al., 2013): 23.5 nM
- IC50 (CYP11B1; ref Gobbi et al., 2013): 19.2 nM

Compound: COc1ccc(Cn2ccnc2)c2c(=O)c3ccccc3oc12 [CHEMBL2333329]
- IC50 (CYP11B2; ref Gobbi et al., 2013): 41.1 nM
- IC50 (CYP11B1; ref Gobbi et al., 2013): 80.1 nM

Compound: CCOc1ccc(Cn2ccnc2)c2c(=O)c3ccccc3oc12 [CHEMBL2333330]
- IC50 (CYP11B2; ref Gobbi et al., 2013): 14.8 nM
- IC50 (CYP11B1; ref Gobbi et al., 2013): 25.4 nM

Compound: CC(C)Oc1ccc(Cn2ccnc2)c2c(=O)c3ccccc3oc12 [CHEMBL2333331]
- IC50 (CYP11B2; ref Gobbi et al., 2013): 19.1 nM
- IC50 (CYP11B1; ref Gobbi et al., 2013): 92.5 nM

Compound: CC(C)CCOc1ccc(Cn2ccnc2)c2c(=O)c3ccccc3oc12 [CHEMBL2333332]
- IC50 (CYP11B2; ref Gobbi et al., 2013): 25.2 nM
- IC50 (CYP11B1; ref Gobbi et al., 2013): 24.4 nM

Compound: CCC(C)Oc1ccc(Cn2ccnc2)c2c(=O)c3ccccc3oc12 (centres unmarked) [CHEMBL2333333]
- IC50 (CYP11B2; ref Gobbi et al., 2013): 15.3 nM
- IC50 (CYP11B1; ref Gobbi et al., 2013): 13.1 nM

Compound: O=c1c2ccccc2oc2c(OCC3CC3)ccc(Cn3ccnc3)c12 [CHEMBL2333334]
- IC50 (CYP11B2; ref Gobbi et al., 2013): 24.1 nM
- IC50 (CYP11B1; ref Gobbi et al., 2013): 5.5 nM

Compound: O=c1c2ccccc2oc2c(OC3CCCC3)ccc(Cn3ccnc3)c12 [CHEMBL2333335]
- IC50 (CYP11B2; ref Gobbi et al., 2013): 99.7 nM
- IC50 (CYP11B1; ref Gobbi et al., 2013): 268 nM

Compound: Cc1cncc(Cc2ccc(-c3ccccc3)nc2)c1 [CHEMBL2417553]
- IC50 (CYP11B2; ref Emmerich et al., 2013): 33 nM
- IC50 (CYP11B1; ref Emmerich et al., 2013): 2 nM

Compound: FC(F)(F)c1cncc(Cc2ccc(-c3ccccc3)nc2)c1 [CHEMBL2417613]
- IC50 (CYP11B2; ref Emmerich et al., 2013): 115 nM
- IC50 (CYP11B1; ref Emmerich et al., 2013): 38 nM

Compound: COc1cncc(Cc2ccc(-c3ccccc3)nc2)c1 [CHEMBL2417614]
- IC50 (CYP11B2; ref Emmerich et al., 2013): 25 nM
- IC50 (CYP11B1; ref Emmerich et al., 2013): 5 nM
